Earlier results, collected in US20090136549A1, “TRANSDERMAL PATCH CONTAINING RASAGILINE FOR TREATMENT OR PROPHYLAXIS OF NERVOUS SYSTEM DISEASE AND ITS PREPARATION PROCESS” (Chongqing Pharmaceutical Research Institute Co., Ltd., priority 2006, published 2009).

What was measured:
patients with early PD = conditions: rasagiline 2 mg/d for 1 year
[1] = oral administration

reduction of blood peak concentration by eating [1]: 60%
Structure (SMILES): C#CCN[C@@H]1CCc2ccccc21 [rasagiline]
mean UPDRS score lower than that of the patients administered with placebo in the last 6 months (patients with early PD): 2.29 units
mean UPDRS score lower than that of the patients administered with rasagiline 1 mg/d for 1 year (patients with early PD): 1.82 units
